# According to ChEMBL document CHEMBL1201862, “PubChem BioAssay data set” (2004):
# The source made the active and inactive calls. Rule as the data show it, for most assays here: actives have a measured EC50 and inactives only a lower limit.
# How the values were obtained:
# [1] = molecular target: T1, Heat shock factor protein 1 (Mus musculus, UniProt P38532); experiment: enhancement of HSF1-driven luciferase signal – cell-based, NIH3T3, luminescence, dose retest, confirmation (AID 435004); assay type: functional;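 also: stress induced by proteasome inhibitor MG132 added 30 min after compound; luciferase reporter driven by HSF1 response element in NIH3T3 cells; actives raise luminescence as potentiators of the MG132 stress response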
# T1 sequence (P38532 whole entry): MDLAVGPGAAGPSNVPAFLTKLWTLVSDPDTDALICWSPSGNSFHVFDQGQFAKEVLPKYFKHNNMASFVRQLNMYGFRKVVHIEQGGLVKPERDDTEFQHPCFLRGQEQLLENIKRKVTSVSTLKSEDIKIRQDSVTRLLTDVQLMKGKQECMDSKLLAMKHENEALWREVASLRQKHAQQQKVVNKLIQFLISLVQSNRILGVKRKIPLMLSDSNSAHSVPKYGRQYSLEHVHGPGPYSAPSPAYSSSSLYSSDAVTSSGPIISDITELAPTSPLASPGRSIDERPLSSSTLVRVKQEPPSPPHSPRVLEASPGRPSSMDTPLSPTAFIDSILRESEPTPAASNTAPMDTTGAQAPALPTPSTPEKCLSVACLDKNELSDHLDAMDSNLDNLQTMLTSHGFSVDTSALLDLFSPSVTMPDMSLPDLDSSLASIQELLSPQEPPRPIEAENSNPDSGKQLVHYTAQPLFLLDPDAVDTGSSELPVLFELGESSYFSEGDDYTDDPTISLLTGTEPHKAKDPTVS
# [2] = viability of uninfected HEp-2 cells – cell-based, HTS, cytotoxicity control for RSV inhibitor project, dose response (AID 2410); assay type: functional; details: human respiratory syncytial virus
# [3] = tested on: Streptococcus sp. 'group A'; experiment: Streptococcus pyogenes SK(-)GAS viability under kanamycin – luminescence, BacTiterGlo, confirmation, counter-screen for streptokinase expression inhibitor project, dose response (AID 1900); assay type: functional, organism-based
# Streptokinase A = molecular target: T2, Streptokinase A (Streptococcus pyogenes serotype M1, UniProt P10520); experiment: viability-normalized secreted streptokinase activity reduction – plasminogen activation absorbance, OD405, dose response (AID 1914); assay type: functional, Streptococcus pyogenes M1 GAS;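 also: secreted streptokinase activity via plasminogen activation per viability signal from cell pellet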
# T2 sequence (P10520 whole entry): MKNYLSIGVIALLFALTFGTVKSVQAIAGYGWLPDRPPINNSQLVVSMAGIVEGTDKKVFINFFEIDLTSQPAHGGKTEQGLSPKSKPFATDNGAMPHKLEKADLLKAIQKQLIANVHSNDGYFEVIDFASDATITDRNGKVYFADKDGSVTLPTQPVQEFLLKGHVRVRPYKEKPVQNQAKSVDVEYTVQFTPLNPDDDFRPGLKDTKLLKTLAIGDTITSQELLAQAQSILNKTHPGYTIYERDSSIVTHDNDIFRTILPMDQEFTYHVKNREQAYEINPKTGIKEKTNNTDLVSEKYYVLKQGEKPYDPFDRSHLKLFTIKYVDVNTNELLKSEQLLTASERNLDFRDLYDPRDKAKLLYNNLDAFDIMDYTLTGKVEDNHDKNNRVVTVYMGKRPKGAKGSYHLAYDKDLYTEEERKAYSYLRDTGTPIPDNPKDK
# Streptococcus = experiment: GAS UMAA2166 growth inhibition – luminescence, BacTiterGlo, counter-screen for streptokinase expression inhibitor project, dose response (AID 1915); assay type: functional, organism-based;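 also: potency for reduction of bacterial viability or growth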
# Cytochrome P450 1A2 = molecular target: T3, Cytochrome P450 1A2 (Homo sapiens, UniProt P05177);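 also: PubChem cytochrome P450 panel assay, CYP1A2 panel member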
# T3 sequence (P05177 whole entry): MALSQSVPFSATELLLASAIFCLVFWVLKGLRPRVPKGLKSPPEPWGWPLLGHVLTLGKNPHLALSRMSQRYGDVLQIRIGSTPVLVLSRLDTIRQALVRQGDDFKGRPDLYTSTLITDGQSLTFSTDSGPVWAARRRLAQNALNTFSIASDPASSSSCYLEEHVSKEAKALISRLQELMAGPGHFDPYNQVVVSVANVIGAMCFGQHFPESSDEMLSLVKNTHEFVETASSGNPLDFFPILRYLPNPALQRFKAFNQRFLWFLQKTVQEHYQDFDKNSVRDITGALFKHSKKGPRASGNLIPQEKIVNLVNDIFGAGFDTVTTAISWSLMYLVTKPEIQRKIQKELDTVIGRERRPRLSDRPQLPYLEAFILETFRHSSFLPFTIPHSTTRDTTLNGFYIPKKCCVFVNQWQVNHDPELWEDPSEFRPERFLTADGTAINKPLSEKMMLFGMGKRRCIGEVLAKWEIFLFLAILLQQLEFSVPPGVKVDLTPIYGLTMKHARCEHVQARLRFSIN
# [4] = NIH-3T3 fibroblast cytotoxicity, dose response, cytotoxicity control, cell-based, fluorescence, Alamar Blue, secondary assay (AID 2327); assay type: functional;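 also: NIH-3T3 mouse fibroblasts cultured with fluconazole at 8 µg/mL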
# [5] = molecular target: T4, Rac GTPase-activating protein 1 (Homo sapiens, UniProt Q9H0H5); experiment: blockers of MgcRacGAP-driven Rac1 GTP hydrolysis – biochemical, ADP Hunter fluorescence, primary and confirmatory, confirmation (AID 624330); assay type: functional
# T4 sequence (Q9H0H5 whole entry): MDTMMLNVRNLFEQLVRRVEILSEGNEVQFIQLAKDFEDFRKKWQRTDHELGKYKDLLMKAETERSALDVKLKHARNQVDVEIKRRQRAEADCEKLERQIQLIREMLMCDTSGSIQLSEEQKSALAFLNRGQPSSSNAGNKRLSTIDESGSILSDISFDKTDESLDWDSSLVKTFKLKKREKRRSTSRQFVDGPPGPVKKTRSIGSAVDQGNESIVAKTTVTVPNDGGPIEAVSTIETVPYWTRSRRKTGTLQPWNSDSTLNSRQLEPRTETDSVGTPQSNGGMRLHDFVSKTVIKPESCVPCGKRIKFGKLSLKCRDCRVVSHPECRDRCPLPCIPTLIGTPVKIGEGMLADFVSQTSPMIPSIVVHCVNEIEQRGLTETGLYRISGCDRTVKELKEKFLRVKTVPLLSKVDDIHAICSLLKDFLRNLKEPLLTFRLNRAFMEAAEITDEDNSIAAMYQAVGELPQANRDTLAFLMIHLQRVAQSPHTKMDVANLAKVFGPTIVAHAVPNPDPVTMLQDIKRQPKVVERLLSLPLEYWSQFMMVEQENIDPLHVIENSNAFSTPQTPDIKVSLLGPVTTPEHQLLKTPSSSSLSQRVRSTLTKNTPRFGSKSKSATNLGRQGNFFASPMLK
# [6] = molecular target: T5, Corticotropin-releasing factor receptor 2/Corticotropin-releasing factor-binding protein (Homo sapiens, UniProt P24387+Q13324); experiment: activators of CRF receptor 2 with binding protein – uHTS hits, confirmation (AID 602473); assay type: functional; details: read-out: EC50_Mean
# T5 sequence (Q13324 whole entry): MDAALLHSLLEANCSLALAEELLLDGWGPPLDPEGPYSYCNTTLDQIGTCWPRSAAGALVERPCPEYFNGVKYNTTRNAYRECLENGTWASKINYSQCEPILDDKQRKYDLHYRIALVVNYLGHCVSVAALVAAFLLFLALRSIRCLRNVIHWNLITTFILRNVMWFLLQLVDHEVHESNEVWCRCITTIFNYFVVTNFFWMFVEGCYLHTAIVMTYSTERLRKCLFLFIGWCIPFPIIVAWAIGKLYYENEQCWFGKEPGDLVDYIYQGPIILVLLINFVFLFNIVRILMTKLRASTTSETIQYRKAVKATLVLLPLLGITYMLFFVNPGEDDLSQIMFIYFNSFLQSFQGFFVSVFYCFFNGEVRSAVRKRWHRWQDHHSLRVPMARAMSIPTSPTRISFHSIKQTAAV
# T5 sequence (P24387 whole entry): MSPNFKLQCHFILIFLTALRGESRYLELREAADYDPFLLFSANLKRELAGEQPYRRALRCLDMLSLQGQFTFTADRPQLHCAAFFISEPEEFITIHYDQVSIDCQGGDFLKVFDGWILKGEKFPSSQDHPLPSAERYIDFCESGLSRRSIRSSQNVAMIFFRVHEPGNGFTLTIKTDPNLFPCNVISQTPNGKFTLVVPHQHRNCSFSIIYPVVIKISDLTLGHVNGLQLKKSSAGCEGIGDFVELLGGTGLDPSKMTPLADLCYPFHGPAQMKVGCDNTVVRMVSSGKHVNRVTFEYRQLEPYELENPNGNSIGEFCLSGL
# [7] = molecular target: T5, Corticotropin-releasing factor receptor 2/Corticotropin-releasing factor-binding protein; experiment: Dose Response confirmation of uHTS hits for small molecule antagonists of the CRF-binding protein and CRF-R2 receptor complex.; assay type: functional; details: read-out: IC50_Mean
smiles,measurement,setting,value
Cc1ccc(-c2cnc3cc(C)nn3c2)cc1,EC50,[1],> 260 µM (inactive)
CCn1cc(C2=NC(c3ccccc3)CO2)c2ccccc21 (centres undefined),CC50,[2],14.8 µM (active)
Cc1cccc(NC(=O)c2[nH]cnc2C(=O)N[C@@H](Cc2ccccc2)C(=O)OCc2ccccc2)c1,CC50,[2],46.3 µM (active)
Cc1cccc(NC(=O)CCc2c(C)nn(-c3ccc(N4CCCCC4)nn3)c2C)c1,EC50,[1],> 260 µM (inactive)
CCC1C(=NO)C(CC)C(c2ccccc2)NC1c1ccccc1 (centres undefined),EC50,[1],> 260 µM (inactive)
same,EC50,[3],4.07 µM (active)
same,EC50,Streptokinase A,13.3 µM (active)
same,EC50,Streptococcus,11.8 µM (active)
Cc1ccc(C)c(-c2cc(C(=O)Nc3sc(C)c(C)c3C(N)=O)c3ccccc3n2)c1,AC50,Cytochrome P450 1A2,3.16 µM (inconclusive)
same,EC50,[3],2.81 µM (active)
same,EC50,Streptokinase A,4.64 µM (active)
same,EC50,Streptococcus,> 150 µM (not active)
same,CC50,[2],9.97 µM (active)
Cc1ccc2c(c1)/C(=C/c1ccc(F)cc1)C(=O)N2,EC50,[1],> 260 µM (inactive)
Cc1ccc(Cn2nnc3c(O)nc(C4CCN(S(=O)(=O)c5ccc(C)cc5)CC4)nc32)cc1,EC50,[4],> 150 µM (inactive)
same,CC50,[2],13.6 µM (active)
COC(=O)/C(C#N)=C/c1c(N2CCCCCC2)nc2c(C)cccn2c1=O,EC50,[1],> 260 µM (inactive)
Cc1ccc(OCC(=O)N2CCN(CC3CC4C=CC3C4)CC2)cc1 (centres undefined),IC50,[5],293 µM (active)
c1ccc(-c2cc(-c3ccc(N4CCOCC4)cc3)nc3ccccc23)cc1,CC50,[2],> 50 µM (active)
O=C(CCn1c(=O)oc2ccccc21)Nc1ccccc1,EC50,[1],> 260 µM (inactive)
O=C(c1ccc(N2CCN(C3CC(=O)N(Cc4cccs4)C3=O)CC2)cc1)c1cccnc1 (centres undefined),CC50,[2],24.4 µM (active)
CN(C)CCCn1c(SCc2ccc(Cl)cc2)nnc1-c1ccncc1,IC50,[5],121 µM (active)
COc1ccc(NS(=O)(=O)c2ccc(N3CCOCC3)c(NC(=O)C(C)C)c2)cc1,EC50,[6],> 53 µM (inactive)
same,IC50,[7],> 47.1 µM (inactive)
CCOC(=O)c1c(C)[nH]c(C(=O)CN2CCN(CC)CC2)c1C,IC50,[5],60.6 µM (active)
CCOc1cc(CNc2ccc3c(c2)OCCO3)cc(Br)c1OCC(N)=O,IC50,[5],99.3 µM (active)
Cc1ccccc1C(=O)Nc1ccc(N2CCCC2)cc1,IC50,[5],79.7 µM (active)
O=C(NNc1cccc(Cl)n1)Nc1ccc(Cl)cc1,EC50,[1],> 260 µM (inactive)
CC(c1ccc(F)cc1)n1c(S)nnc1Cn1ncc2ccccc2c1=O (centres undefined),EC50,[1],> 260 µM (inactive)
